Measurements reported in article PMC8328489, “Automated Synthesis and Initial Evaluation of (4′-Amino-5′,8′-difluoro-1′H-spiro[piperidine-4,2′-quinazolin]-1-yl)(4-[^18F]fluorophenyl)methanone for PET/MR Imaging of Inducible Nitric Oxide Synthase” (Molecular Imaging, 2021).

How the values were obtained:
iNOS = biological target: T1, iNOS (Mus musculus, UniProt P29477); experiment: Pharmacokinetic two-compartment modeling of dynamic PET; type: in vivo, C57BL/6 mice; conditions: mouse whole brain
T1 construct: tracer to detect iNOS expression in mice injected with lipopolysaccharide (LPS) to induce brain inflammation; from tissue; host or cells: brain of living C57BL/6 mice (LPS-induced); fixed brain sections for IHC
Description: A time activity curve (TAC) for a carotid artery region of interest was used to determine the dynamic PET image-derived [^18F]FBAT input function in uncorrected blood plasma. The corresponding TACs for [^18F]FBAT were derived by applying images from mice administered [^18F]FBAT to the image-derived plasma TAC. Model parameters were estimated for influx constant k1 (mL/cm^3/min^−1), efflux (k2) (min^−1) rate of radioligand diffusion between plasma and brain compartment. Exchange between compartments k3 (min^−1) and k4 (min^−1) was also estimated. The net influx constant, Ki (min^−1), parameter that describes the rate of binding to the iNOS was calculated as (2) KiFBAT=k1FBAT×k3FBAT/k2FBAT+k3FBAT.
Compartmental modeling, pharmacokinetic analyses, and generation of pixel-by-pixel parametric images were accomplished using PMOD 4.0 software (PMOD Technologies Ltd., Zurich, Switzerland).

[1] = test system: murine microglial BV2 cells; experiment: In vitro [^18F]FBAT uptake assay; type: cell-based
Experimental: BV2 cells were cultured as described above, washed three times with fresh medium, pretreated with a selective iNOS inhibitor, aminoguanidine (AMG), (0, 1, or 0.1 mM) for 1 h, and then treated with cell culture media containing LPS and the inhibitor. At the indicated time points, the cells were washed thrice with fresh cell culture media, then incubated in fresh cell culture media continuing the radiotracer [^18F]FBAT at 0.37 MBq/mL for 15, 30, or 60 min, harvested by gentle scraping, and pelleted by centrifugation at 1500 g for 2 min. The weight of the cell pellet and 0.1 mL of the radioactive supernatant was determined. A Packard 5500 gamma counter (PerkinElmer, Billerica, MA, USA) was used to quantify radioactivity as cpm/g cells or cpm/mL media, respectively. Cell-to-medium radioactivity concentration ratios were calculated and plotted over time to evaluate the kinetics of accumulation of the radiotracer.
iNOS is the enzyme responsible for NO generation in BV2 cells; therefore, accumulation of [^18F]FBAT in BV2 cells before or after iNOS inhibitor versus NO production was also assessed.

[2] = Log P measurement (1-octanol/phosphate buffer, UV); type: physicochemical; conditions: 1-octanol / 0.02 M phosphate buffer; 1-octanol / phosphate buffer pH 7.4
Experimental: The partition coefficient of FBAT, determined between 1-octanol and 0.02 M phosphate buffer at pH 7.4, was measured by UV spectrophotometer (SPARK 10 M from Tecan) at wavelength 230 nm.

NC1=NC2(CCN(C(=O)c3ccc([18F])cc3)CC2)Nc2c(F)ccc(F)c21 [[^18F]FBAT, (4′-amino-5′,8′-difluoro-1′H-spiro[piperidine-4,2′-quinazolin]-1-yl)(4-[^18F]fluorophenyl)methanone]
k1 (influx rate constant) (iNOS; LPS 5 mg/kg): 0.633 ± 0.002 min⁻¹
k2 (efflux rate constant) (iNOS; LPS 5 mg/kg): 0.608 ± 0.054 min⁻¹
k3 (iNOS; LPS 5 mg/kg): 0.006 ± 0.003^∗ min^−1
k1 (influx rate constant) (iNOS; control): 0.957 ± 0.250 min⁻¹
k2 (efflux rate constant) (iNOS; control): 0.777 ± 0.101 min⁻¹
k3 (iNOS; control): 2.86E − 05 ± 4.48E − 05 min^−1
[^18F]FBAT accumulation, LPS-induced vs control BV2 cells ([1]; 60 min): more than 1.7 fold
cells-per-medium concentration ratio at plateau ([1]; LPS-induced BV2 cells, after 1 h): 180–200
cells-per-medium concentration ratio at plateau ([1]; control BV2 cells): ~100
logP [2]: 1.4
